Laboratory results published in US9290473B2, “Inhibitors of phosphatidylinositol-3-kinase (PI3) and inducers of nitric oxide (NO)” (COUCIL OF SCIENTIFIC & INDUSTRIAL RESEARCH, priority 2009, dated 2016).
Like-named read-outs stand apart in the source and are kept apart here.

Legend:
[1] = test system: breast cancer cell line MCF-7; assay: Cell viability, trypan blue exclusion, MCF-7; format: cell-based, human
Source text: (§1) Following cancer cell lines were used: chronic myeloid leukemia cell lines K562, KU812; acute myeloid leukemia cell lines HL60, U937; T-lymphoblastic leukemia cell line Molt-4; prostate cancer cell line PC-3; breast cancer cell line MCF-7; pancreatic cancer cell line MIA PaCa-2. These cancer cell lines were maintained in tissue culture in standard growth medium containing 10% heat-inactivated fetal bovine serum (FBS). Normal human peripheral blood mononuclear cells (PBMC) were separated from whole blood by Ficoll/Hypaque density gradient centrifugation. Peripheral blood samples were collected from normal donors with due approval from the Human Ethics Committee of Indian Institute of Chemical Biology, Kolkata, India, and all experiments with human blood were conducted under an approved institutional Human Ethics committee protocol. Informed consent was provided according to the Declaration of Helsinki. Cancer cell lines and PBMC (5×10^3) in triplicate were incubated in 0.2 mL of standard growth medium containing 10% FBS with varying concentrations of test compounds of the present invention. After 72 hours of incubation, cells were collected by centrifugation (at 1000 g for 5 minutes) and cell-viability was determined by the trypan blue exclusion assay. At least 200 cells were examined in each sample. Because of monolayer culture, treated and untreated PC-3, MCF-7 and MIA PaCa-2 cells were detached from the wells by treatment with Cell Dissociation Solution (Sigma Chemical, St. Louis, Mo.) before counting. Data are represented as IC50 (minimum concentration required to inhibit the viability by 50%) in Table 5.

[2] = test system: chronic myeloid leukemia cell line KU812; assay: Cell viability, trypan blue exclusion, KU812; format: cell-based; settings: Homo sapiens, 72 hours incubation
Source text: as §1

U937 cells = assay: Morphology and apoptosis/necrosis in U937 cells (Giemsa; annexin V-FITC/PI flow cytometry); format: cell-based, human; settings: Compound No.1 30 μM, Compound No.7 15 μM, 24 hours, annexin V-FITC/PI
Description: U937 cells were treated with standard growth medium alone or with standard growth medium containing hydroxychavicol (30 μM) for 24 hours. Treated and untreated cells were stained with Giemsa and viewed under microscope (magnification ×1000). For measurement of apoptosis/necrosis, cells were left untreated or treated with Compound No. 1 (30 μM) or Compound No.7 (15 μM) for 24 hours. After washing, cells were stained with fluorescein isothiocyanate (FITC)-conjugated annexin V and propidium iodide (PI) and analysed in a flow cytometer (BD LSR, Becton Dickinson).
FIG. 2B indicates flow cytometric determination of apoptosis and necrosis by Compound No.1 (hydroxychavicol) and Compound No.7. Apoptosis and necrosis of U937 cells were induced. Cells were left untreated (extreme left panel), or incubated with Compound No.1 (30 μM) (middle panel) or Compound No.7 (extreme right panel) (15 μM) for 24 hours and processed for flow cytometry after staining with annexin V-FITC and propidium iodide (PI). Viable cells are in the lower left quadrant (stained neither by annexin V nor by PI), early apoptotic cells (stained by annexin V only) are in the lower right quadrant, late-stage apoptotic cells (stained by both annexin V and PI) are in the upper right quadrant and the necrotic cells (stained by PI only) are in the upper left quadrant.

[3] = test system: Ehrlich ascites carcinoma (EAC); assay: Ehrlich ascites carcinoma (EAC) model in vivo; settings: 30 mg/kg body weight intraperitoneally thrice a week for three weeks, Swiss albino mice
Source text: The in vitro studies indicate that hydroxychavicol and other compounds of the present invention induce killing of a variety of cancer cell lines including breast cancer cell line MCF-7 (Table 5). The MCF-7 cell line is of epithelial origin. Studies were extended in vivo in mouse model for a tumor of epithelial origin. Ehrlich ascites carcinoma is a tumor of epithelial origin (Cancer Research, 1958, 18, 1167-1185). EAC was established in Swiss albino mice as described (Biochemical and Biophysical Research Communications, 2001, 288, 658-665). Swiss albino mice were injected with EAC (2×10^6 cells/mouse) intraperitoneally. 2 days post-injection of tumor cells, these mice (5 per group) were injected intraperitoneally with Compound No. 1 (hydroxychavicol) (30 mg/kg body weight) or Compound No. 7 (30 mg/kg body weight) thrice a week for three weeks. One week after the last injection, mice were sacrificed, and viable cells from peritoneal cavity were counted microscopically. Vehicle (dimethyl sulphoxide [DMSO], 0.1%) was used as control.

normal human PBMC = assay: Apoptosis/necrosis of normal human PBMC by flow cytometry; format: cell-based; settings: 30 μM, 24 hours
Description: FIG. 2C indicates flow cytometric determination of apoptosis and necrosis of normal human PBMC by Compound 1 (30 μM) and Compound 7 (30 μM) after incubation for 24 hours.

[4] = test system: Normal human peripheral blood mononuclear cells (PBMC); assay: Cell viability, trypan blue exclusion, normal PBMC; format: cell-based; settings: 72 hours incubation
Source text: as §1

[5] = test system: chronic myeloid leukemia cell line K562; assay: Cell viability, trypan blue exclusion, K562; format: cell-based; settings: Homo sapiens
Source text: as §1

[6] = test system: pancreatic cancer cell line MIA PaCa-2; assay: Cell viability, trypan blue exclusion, MIA PaCa-2; format: cell-based, human; settings: read-out: Activity (IC50) MIAPaCa-2
Source text: as §1

[7] = test system: acute myeloid leukemia cell line U937; assay: Cell viability, trypan blue exclusion, U937; format: cell-based; settings: Homo sapiens, U-937, 72 hours incubation
Source text: as §1

[8] = test system: acute myeloid leukemia cell line HL60; assay: Cell viability, trypan blue exclusion, HL-60; format: cell-based; settings: Homo sapiens
Source text: as §1

[9] = test system: T-lymphoblastic leukemia cell line Molt-4; assay: Cell viability, trypan blue exclusion, Molt-4; format: cell-based, human
Source text: as §1

[10] = Sensitivity to spontaneous autooxidation (H2O2 level, TMB reagent); format: physicochemical; settings: 30 µM, 30 min and 2 hr in medium alone, with and without Catalase; H2O2 in supernatant
Description: Spontaneous autooxidation of compounds having phenolic groups produce reactive oxygen species like H2O2. The enzyme Catalase breaks down H2O2 to water, We therefore incubated Compound 1 and 7 (30 µM each) for 30 min and 2 hr in medium alone in the presence and absence of Catalase. Level of H2O2 in the supernatant was then measured as reported using 3,5,3′,5′-tetramethylbenzidine (TMB) reagent (Plant Physiology, 2004, 136, 3114-3123). FIG. 1 represents the data of sensitivity of spontaneous autooxidation of Compound 1 and Compound 7.

[11] = test system: prostate cancer cell line PC-3; assay: Cell viability, trypan blue exclusion, PC-3; format: cell-based, human; settings: 72 hours incubation
Source text: as §1

[12] = Homo sapiens, MCF7, 72 h, 72 hours incubation
[13] = K562, 72 hours incubation, trypan blue exclusion, read-out: Activity (IC50) K562
[14] = read-out: IC50 against chronic myeloid leukemia cancer cell lines (K562), range over both cell lines K562, KU812 and KU812 and over the listed compounds, read-out: IC50 against chronic myeloid leukemia cancer cell lines (K562, KU812)
[15] = Homo sapiens, MIA PaCa-2, 72 h, 72 hours incubation
[16] = 72 hours incubation, trypan blue exclusion, read-out: Activity (IC50) HL-60
[17] = range over both cell lines HL60 and U937 and over the listed compounds, read-out: IC50 against acute myeloid leukemia cancer cell line (HL60, U937)
[18] = Homo sapiens, MOLT-4, 72 h, 72 hours incubation

| Structure (SMILES) | IC50 ([1]; 72 hours incubation) [µM] | IC50 [1, 12] [µM] | IC50 [2] [µM] | IC50 [4] [µM] | IC50 [5, 13] [µM] | IC50 [5, 14] [µM] | IC50 [6, 15] [µM] | IC50 [7] [µM] | IC50 [8, 16] [µM] | IC50 [8, 17] [µM] | IC50 ([9]; 72 hours incubation) [µM] | IC50 [9, 18] [µM] | IC50 [11] [µM] | IC50 ([11]; Homo sapiens, 72 h) [µM] | further results |
| --- | --- | --- | --- | --- | --- | --- | --- | --- | --- | --- | --- | --- | --- | --- | --- |
| C=CCc1ccc(OC(C)=O)c(OC(C)=O)c1 [Compound 7, 4-allyl-1,2-phenylene diacetate] | 25 | 25 to 70 | 15 | 70 | 13 | 13 to 52 | 30 to 70 | 13 | 15 | 13 to 60 | 15 | 15 to 50 | 25 | 25 to 70 | Apoptosis and necrosis of U937 cells by flow cytometry (U937 cells): induce apoptosis and necrosis; In vivo efficacy against EAC tumor (viable cells from peritoneal cavity) [3]: effective in vivo in destroying EAC tumor; Apoptosis and necrosis of normal human PBMC by flow cytometry (normal human PBMC): remained unaffected; IC50 ([6]; 72 hours incubation): 30 µM; Sensitivity to spontaneous autooxidation [10]: resistant to spontaneous autooxidation |
| C=CCc1cccc(OC(C)=O)c1OC(C)=O [Compound 19, 3-allyl-1,2-phenylene diacetate] |  | 20 | 20 | 30 | 13 |  | 20 | 15 | 15 |  |  | 20 |  | 20 |  |
| C=CCc1ccc(O)c(O)c1CC=C [Compound 3, 3,4-diallylbenzene-1,2-diol] | 70 |  |  | 80 | 52 | 13 to 52 |  |  | 60 | 13 to 60 | 50 |  |  | 25 to 70 | IC50 ([6]; 72 hours incubation): 70 µM |
| CCOC(=O)/C=C/C(C)(C)c1ccc(O)c(O)c1 [Compound 13, (E)-ethyl 4-(3,4-dihydroxyphenyl)-4-methylpent-2-enoate] | 70 |  | 45 | 75 | 50 | 13 to 52 | 30 to 70 | 45 | 50 | 13 to 60 | 45 |  | 70 |  |  |
| C=CC(C)(C)c1ccc2c(c1)OCO2 [Compound 14, 5-(2-methylbut-3-en-2-yl)benzo[d][1,3]dioxole] |  |  | 650 | 800 | 657 |  |  | 670 | 670 |  |  |  |  |  | IC50 ([1]; Homo sapiens, MCF7, 72 hours incubation): 680 µM; IC50 ([6]; Homo sapiens, MIA PaCa-2, 72 hours incubation): 680 µM; IC50 ([9]; Homo sapiens, MOLT-4, 72 hours incubation): 650 µM; IC50 ([11]; Homo sapiens): 670 µM |
| CC(=O)ON=CC(C)(C)c1ccc(OC(C)=O)c(OC(C)=O)c1 [Compound 12, 4-(1-(acetoxyimino)-2-methylpropan-2-yl)-1,2-phenylene diacetate] |  | 200 | 190 | 250 | 194 |  |  | 190 | 190 |  |  | 190 |  | 200 |  |
| C=CCc1cc(O)c(O)cc1CC=C [Compound 2, 4,5-diallylbenzene-1,2-diol] | 40 | 25 to 70 | 25 |  | 13 | 13 to 52 | 30 to 70 |  | 25 | 13 to 60 | 30 | 15 to 50 |  | 25 to 70 |  |
| C=CCc1cccc(O)c1O [Compound 16, 3-allyl-benzene-1,2-diol] |  | 25 to 70 | 25 | 30 | 20 | 13 to 52 | 30 to 70 | 25 | 20 | 13 to 60 | 20 | 15 to 50 | 30 | 25 to 70 |  |
| CC(C)(C=NO)c1ccc(O)c(O)c1 [Compound 9, 2-(3,4-dihydroxyphenyl)-2-methylpropanal oxime] |  | 85 | 70 | 100 | 64 |  | 85 |  | 64 |  |  | 70 |  | 80 |  |
| CC(C)(C#N)c1ccc(O)c(O)c1 [Compound 10, 2-(3,4-dihydroxyphenyl)-2-methylpropanenitrile] |  | 100 | 115 | 150 | 113 |  | 120 | 110 | 110 |  |  |  |  | 120 |  |
